Measured values published in ChEMBL document CHEMBL2417513, “Selective activity of 2,4-diaryl-1,2,3,4-tetrahydroquinolines on Trypanosoma cruzi epimastigotes and amastigotes expressing β-galactosidase” (Bioorg Med Chem Lett, 2013).

Assays:
[1] = Cytotoxicity against mouse NCTC-929 cells after 48 hrs by resazurin based fluorescence assay; format: cell-based; conditions: for LC50: nctc-929, 48 h; for CC50 at 48 h: NCTC-929 cells, read-out: LC50
Trypanosoma cruzi [2] = test: Antiparasitic activity against epimastigotes of Trypanosoma cruzi CL Brener expressing Escherichia coli lacZ gene […] assessed as parasite growth inhibition at 32 uM after 72 hrs by colorimetric assay; format: functional; parameters: scale not given: the % may be the effect or the level left
Trypanosoma cruzi [3] = test: Antiparasitic activity against epimastigotes of Trypanosoma cruzi CL Brener expressing Escherichia coli lacZ gene […] assessed as parasite growth inhibition after 72 hrs by colorimetric assay; format: functional, organism-based
[4] = Cytotoxicity against mouse NCTC-929 cells at 256 uM after 48 hrs by resazurin based fluorescence assay; format: cell-based; conditions: nctc-929, 48 h
[5] = Selectivity index, ratio of LC50 for mouse NCTC-929 cells to IC50 for epimastigotes of Trypanosoma cruzi CL Brener; format: toxicity, cell-based; conditions: read-out: Ratio LC50/IC50
Trypanosoma cruzi [6] = test: Antiparasitic activity against amastigotes of Trypanosoma cruzi CL Brener expressing Escherichia coli lacZ gene infected in mouse NCTC-929 cells assessed as parasite growth inhibition at 32 uM after 7 days by colorimetric assay; format: functional; parameters: scale not given: the % may be the effect or the level left
Trypanosoma cruzi [7] = test: Antiparasitic activity against amastigotes of Trypanosoma cruzi CL Brener expressing Escherichia coli lacZ gene infected in mouse NCTC-929 cells assessed as parasite growth inhibition at 16 uM after 7 days by colorimetric assay; format: functional; parameters: scale not given: the % may be the effect or the level left
Trypanosoma cruzi [8] = test: Antiparasitic activity against amastigotes of Trypanosoma cruzi CL Brener expressing Escherichia coli lacZ gene infected in mouse NCTC-929 cells assessed as parasite growth inhibition at 8 uM after 7 days by colorimetric assay; format: functional; parameters: scale not given: the % may be the effect or the level left
Trypanosoma cruzi [9] = test: Antiparasitic activity against amastigotes of Trypanosoma cruzi CL Brener expressing Escherichia coli lacZ gene infected in mouse NCTC-929 cells assessed as parasite growth inhibition at 4 uM after 7 days by colorimetric assay; format: functional; parameters: scale not given: the % may be the effect or the level left
Trypanosoma cruzi [10] = test: Antiparasitic activity against amastigotes of Trypanosoma cruzi CL Brener expressing Escherichia coli lacZ gene infected in mouse NCTC-929 cells assessed as parasite growth inhibition at 2 uM after 7 days by colorimetric assay; format: functional; parameters: scale not given: the % may be the effect or the level left
Trypanosoma cruzi [11] = test: Antiparasitic activity against amastigotes of Trypanosoma cruzi CL Brener expressing Escherichia coli lacZ gene infected in mouse NCTC-929 cells assessed as parasite growth inhibition after 7 days by colorimetric assay; format: functional, organism-based; conditions: NCTC-929, 168 h
[12] = Selectivity index, ratio of LC50 for mouse NCTC-929 cells to IC50 for amastigotes of Trypanosoma cruzi CL Brener; format: toxicity, cell-based; conditions: read-out: Ratio LC50/IC50
Trypanosoma cruzi [13] = test: Antiparasitic activity against amastigotes of Trypanosoma cruzi CL Brener expressing Escherichia coli lacZ gene infected in mouse NCTC-929 cells assessed as parasite growth inhibition at 1 uM after 7 days by colorimetric assay; format: functional; parameters: scale not given: the % may be the effect or the level left
Trypanosoma cruzi [14] = test: Antiparasitic activity against amastigotes of Trypanosoma cruzi CL Brener expressing Escherichia coli lacZ gene infected in mouse NCTC-929 cells assessed as parasite growth inhibition at 0.5 uM after 7 days by colorimetric assay; format: functional; parameters: scale not given: the % may be the effect or the level left

SMILES	LC50 [1]	Activity (Trypanosoma cruzi [2]) [%]	IC50 (Trypanosoma cruzi [3]) [µM]	Activity [4]	CC50 at 48 h [1] [µM]	selectivity ratio [5]	Activity (Trypanosoma cruzi [6]) [%]	Activity (Trypanosoma cruzi [7]) [%]	Activity (Trypanosoma cruzi [8]) [%]	Activity (Trypanosoma cruzi [9]) [%]	Activity (Trypanosoma cruzi [10]) [%]	IC50 (Trypanosoma cruzi [11]) [µM]	selectivity ratio [12]	Activity (Trypanosoma cruzi [13]) [%]	Activity (Trypanosoma cruzi [14]) [%]
COc1ccc([C@@H]2c3ccc([N+](=O)[O-])cc3N[C@H](c3ccccc3)[C@H]2C)cc1	ND(Insoluble)	83.67	< 8	8.43%											
COc1ccc([C@@H]2c3cc(N)ccc3N[C@H](c3ccccc3)[C@H]2C)cc1		97.06	< 8	85.85%	9.56	> 1.19									
COc1ccc([C@@H]2c3cccc(N)c3N[C@H](c3ccccc3)[C@H]2C)cc1	ND(Insoluble)	79.95	< 8	66.33%											
COc1ccc([C@@H]2c3ccccc3N(Cc3ccccc3)C[C@H]2C)cc1	ND(Insoluble)	14.08		42.15%											
COc1ccc([C@@H]2c3cc(OC)ccc3N(Cc3ccccc3)C[C@H]2C)cc1		88.64	7.67	25.02%	> 256	> 33.4	100	100	100	46.33	25.86	4.27	> 59.9		
COc1ccc([C@@H]2c3cc(Cl)ccc3N(Cc3ccccc3)C[C@H]2C)cc1		100	6.39	ND(Insoluble)	23.6	3.69									
COc1cc([C@@H]2c3cccc([N+](=O)[O-])c3N[C@H](c3ccccc3)[C@H]2C)ccc1O		86.78	< 8	84.75%	< 8										
COc1cc([C@@H]2c3ccccc3N[C@H](c3ccccc3)[C@H]2C)ccc1O		86.23	< 8	84.12%	13	> 1.63									
COc1cc([C@@H]2c3cccc(C#N)c3N[C@H](c3ccccc3)[C@H]2C)ccc1O		95.56	8.29	86.23%	7.75	0.93									
COc1cc([C@@H]2c3cccc([N+](=O)[O-])c3N[C@H](c3ccc(O)cc3)[C@H]2C)ccc1O		99.73	< 8	85.46%	14.4	> 1.79									
COc1cc([C@@H]2c3cccc(N)c3N[C@H](c3ccccc3)[C@H]2C)ccc1O		98.7	< 8	86.9%	< 8										
COc1cc([C@@H]2c3cccc(C#N)c3N[C@H](c3ccc(O)cc3)[C@H]2C)ccc1O		98.75	< 8	85.83%	12.8	1.59									
COc1cc([C@@H]2c3cccc([N+](=O)[O-])c3N[C@H](c3ccc([N+](=O)[O-])cc3)[C@H]2C)ccc1O		92.82	< 8	87.71%	< 8										
COc1cc([C@@H]2c3cccc([N+](=O)[O-])c3N[C@H](c3ccccc3[N+](=O)[O-])[C@H]2C)ccc1O		82.19		ND(Insoluble)	15.9										
COc1cc([C@@H]2c3cccc(C#N)c3N[C@H](c3ccc([N+](=O)[O-])cc3)[C@H]2C)ccc1O		66.81	4.38	48.76%	213	48.6			51.5	33.77		7.66	27.8		
COc1ccc([C@@H]2c3ccccc3N[C@H](c3ccccc3)[C@H]2C)cc1		95.98	5.94	43.05%	> 256	> 43.1	100	99.12	52.21			7.1	> 36		
CCc1ccc2c(c1)[C@@H](c1ccc(OC)cc1)[C@H](C)[C@@H](c1ccccc1)N2		95.85	3.6	0%	> 256	> 71.1	63.72	47.35	58.63	19.11		7.13	> 35.9		
COc1ccc([C@@H]2c3cc(OC)ccc3N[C@H](c3ccccc3)[C@H]2C)cc1		53.99	< 8	0%	> 256	> 32		60.71	58.12			< 8	> 32		
COc1ccc([C@@H]2c3cc([N+](=O)[O-])ccc3N[C@H](c3ccccc3)[C@H]2C)cc1		76.03	< 8	ND(Insoluble)	16	> 2									
COc1ccc([C@@H]2c3cc(Cl)ccc3N[C@H](c3ccccc3)[C@H]2C)cc1	ND(Insoluble)	88.62	7.86	11.72%											
COc1ccc([C@@H]2c3cccc([N+](=O)[O-])c3N[C@H](c3ccccc3)[C@H]2C)cc1		87.22		ND(Insoluble)	28.4										
COc1ccc([C@@H]2c3c(cccc3[N+](=O)[O-])N[C@H](c3ccccc3)[C@H]2C)cc1		78.69	< 8	ND(Insoluble)	27.6	> 3.45									
O=C(Cn1ccnc1[N+](=O)[O-])NCc1ccccc1 [BENZNIDAZOLE]		66.24	27.1	17.38%	> 256	> 9.44	100	100	96.63	74.71	64.37	0.8	> 320	55.64	41.64
